Test results: patent publication US20210253575A1, “PYRROLIDINE AMINE COMPOUNDS FOR THE TREATMENT OF AUTOIMMUNE DISEASE” (Hoffmann-La Roche Inc., priority 2018, published 2021)
pIC50: −log10 of the molar value.

target: T1, human TLR7 (Homo sapiens, UniProt Q9NYK1); assay: HEK293-Blue-hTLR-7 cells assay (SEAP reporter, R848 stimulation); assay type: cell-based; settings: HEK293-Blue-hTLR7 cells, R848 ligand, 20 hrs incubation
T1 sequence (Q9NYK1 27-1049): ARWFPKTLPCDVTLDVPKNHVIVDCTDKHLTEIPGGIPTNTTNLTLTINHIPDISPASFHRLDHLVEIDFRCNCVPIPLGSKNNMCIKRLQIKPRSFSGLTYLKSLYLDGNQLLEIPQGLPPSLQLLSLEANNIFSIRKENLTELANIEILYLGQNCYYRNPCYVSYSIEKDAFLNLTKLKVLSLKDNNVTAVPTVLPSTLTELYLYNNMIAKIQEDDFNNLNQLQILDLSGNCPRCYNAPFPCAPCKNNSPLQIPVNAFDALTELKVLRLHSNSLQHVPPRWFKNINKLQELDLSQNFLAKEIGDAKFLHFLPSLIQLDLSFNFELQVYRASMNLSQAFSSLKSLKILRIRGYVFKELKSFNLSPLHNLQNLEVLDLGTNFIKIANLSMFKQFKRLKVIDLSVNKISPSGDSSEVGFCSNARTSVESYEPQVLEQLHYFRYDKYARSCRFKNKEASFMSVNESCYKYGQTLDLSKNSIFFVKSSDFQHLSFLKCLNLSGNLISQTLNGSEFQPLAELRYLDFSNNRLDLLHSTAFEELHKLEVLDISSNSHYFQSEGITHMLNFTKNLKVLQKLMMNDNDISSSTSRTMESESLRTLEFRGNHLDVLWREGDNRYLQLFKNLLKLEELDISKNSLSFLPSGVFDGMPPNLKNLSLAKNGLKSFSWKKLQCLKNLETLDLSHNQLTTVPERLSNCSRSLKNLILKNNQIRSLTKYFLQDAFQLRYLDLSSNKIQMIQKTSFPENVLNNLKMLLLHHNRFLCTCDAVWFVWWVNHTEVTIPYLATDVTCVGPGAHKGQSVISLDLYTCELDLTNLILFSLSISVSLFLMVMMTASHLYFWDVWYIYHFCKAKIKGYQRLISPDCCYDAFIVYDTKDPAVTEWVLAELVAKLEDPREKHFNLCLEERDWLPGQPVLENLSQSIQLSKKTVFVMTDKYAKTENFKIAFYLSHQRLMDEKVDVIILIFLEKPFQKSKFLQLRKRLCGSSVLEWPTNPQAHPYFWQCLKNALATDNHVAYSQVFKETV
Method in brief: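 Antagonism measured in stable HEK293-Blue-hTLR7 cells carrying an NF-κB/AP-1-driven SEAP reporter, stimulated with R848 (10 µL of 20 µM stock) with serially diluted compound, 1% DMSO, 20 h at 37 °C. Supernatant SEAP read with QUANTI-Blue after 2 h at 37 °C, absorbance 620–655 nm.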

SMILES	pIC50
CC1(CN)CCN(C[C@H]2CN(c3ccc(C#N)c4nccnc34)C[C@@H]2C(F)(F)F)C1 (stereo partly drawn) [Example 85, 8-[(3S,4R)-3-[[3-(aminomethyl)-3-methyl-pyrrolidin-1-yl]methyl]-4-(trifluoromethyl)pyrrolidin-1-yl]quinoxaline-5-carbonitrile]	7.08
CN1CCC2(CCN(C[C@H]3CN(c4ccc(C#N)c5nccnc45)C[C@@H]3C(F)(F)F)C2)C1 (stereo partly drawn) [Example 84, 8-[(3S,4R)-3-[(7-methyl-2,7-diazaspiro[4.4]nonan-2-yl)methyl]-4-(trifluoromethyl)pyrrolidin-1-yl]quinoxaline-5-carbonitrile]	7.32
N#Cc1ccc(N2CC(CN3CC4CCC(C3)C4N)C3(CC3)C2)c2nccnc12 (centres unmarked) [Example 4, 8-[7-[(8-Amino-3-azabicyclo[3.2.1]octan-3-yl)methyl]-5-azaspiro[2.4]heptan-5-yl]quinoxaline-5-carbonitrile]	7.55
CN(C)[C@@H]1CCN(C[C@H]2CN(c3ccc(C#N)c4nccnc34)C[C@@H]2C(F)(F)F)C1 [Example 83, 8-[(3S,4R)-3-[[(3R)-3-(dimethylamino)pyrrolidin-1-yl]methyl]-4-(trifluoromethyl)pyrrolidin-1-yl]quinoxaline-5-carbonitrile]	7.60
N#Cc1ccc(N2CC(CN3CCNCC3)C3(CC3)C2)c2nccnc12 (centres unmarked) [Example 3, 8-[7-(piperazin-1-ylmethyl)-5-azaspiro[2.4]heptan-5-yl]quinoxaline-5-carbonitrile]	7.57
